Test results taken from ChEMBL document CHEMBL4507287, “Data for DCP probe MRL-650” (2021).

Assays:
[1] = test system: Tyrosine-protein kinase ABL1 (Homo sapiens), P00519 [F317L]; details: Compound concentration 1000.0 nM
[2] = biological target: Calcium/calmodulin-dependent protein kinase kinase 2 (Homo sapiens) (UniProt Q96RR4); details: Compound concentration 1000.0 nM
[3] = biological target: Serine/threonine-protein kinase Nek11 (Homo sapiens) (UniProt Q8NG66); details: Compound concentration 1000.0 nM
[4] = biological target: Serine/threonine-protein kinase Nek7 (Homo sapiens) (UniProt Q8TDX7); details: Compound concentration 1000.0 nM
[5] = biological target: Mitogen-activated protein kinase 1 (Homo sapiens) (UniProt P28482); details: Compound concentration 1000.0 nM
[6] = biological target: Serine/threonine-protein kinase PAK 5 (Homo sapiens) (UniProt Q9P286); details: Compound concentration 1000.0 nM
[7] = biological target: Serine/threonine-protein kinase D1 (Homo sapiens) (UniProt Q15139); details: Compound concentration 1000.0 nM
[8] = biological target: Calcium/calmodulin-dependent protein kinase type 1B (Homo sapiens) (UniProt Q6P2M8); details: Compound concentration 1000.0 nM
[9] = biological target: Beta-2 adrenergic receptor (Homo sapiens) (UniProt P07550); details: Compound concentration 10.0 uM
[10] = biological target: Ephrin type-A receptor 1 (Homo sapiens) (UniProt P21709); details: Compound concentration 1000.0 nM
[11] = biological target: Serine/threonine-protein kinase TBK1 (Homo sapiens) (UniProt Q9UHD2); details: Compound concentration 1000.0 nM
[12] = biological target: Angiopoietin-1 receptor (Homo sapiens) (UniProt Q02763); details: Compound concentration 1000.0 nM
[13] = biological target: Receptor-interacting serine/threonine-protein kinase 4 (Homo sapiens) (UniProt P57078); details: Compound concentration 1000.0 nM
[14] = biological target: 1-phosphatidylinositol 3-phosphate 5-kinase (Homo sapiens) (UniProt Q9Y2I7); details: Compound concentration 1000.0 nM
1-phosphatidylinositol 3-phosphate 5-kinase (Homo sapiens), sequence (Q9Y2I7 whole entry): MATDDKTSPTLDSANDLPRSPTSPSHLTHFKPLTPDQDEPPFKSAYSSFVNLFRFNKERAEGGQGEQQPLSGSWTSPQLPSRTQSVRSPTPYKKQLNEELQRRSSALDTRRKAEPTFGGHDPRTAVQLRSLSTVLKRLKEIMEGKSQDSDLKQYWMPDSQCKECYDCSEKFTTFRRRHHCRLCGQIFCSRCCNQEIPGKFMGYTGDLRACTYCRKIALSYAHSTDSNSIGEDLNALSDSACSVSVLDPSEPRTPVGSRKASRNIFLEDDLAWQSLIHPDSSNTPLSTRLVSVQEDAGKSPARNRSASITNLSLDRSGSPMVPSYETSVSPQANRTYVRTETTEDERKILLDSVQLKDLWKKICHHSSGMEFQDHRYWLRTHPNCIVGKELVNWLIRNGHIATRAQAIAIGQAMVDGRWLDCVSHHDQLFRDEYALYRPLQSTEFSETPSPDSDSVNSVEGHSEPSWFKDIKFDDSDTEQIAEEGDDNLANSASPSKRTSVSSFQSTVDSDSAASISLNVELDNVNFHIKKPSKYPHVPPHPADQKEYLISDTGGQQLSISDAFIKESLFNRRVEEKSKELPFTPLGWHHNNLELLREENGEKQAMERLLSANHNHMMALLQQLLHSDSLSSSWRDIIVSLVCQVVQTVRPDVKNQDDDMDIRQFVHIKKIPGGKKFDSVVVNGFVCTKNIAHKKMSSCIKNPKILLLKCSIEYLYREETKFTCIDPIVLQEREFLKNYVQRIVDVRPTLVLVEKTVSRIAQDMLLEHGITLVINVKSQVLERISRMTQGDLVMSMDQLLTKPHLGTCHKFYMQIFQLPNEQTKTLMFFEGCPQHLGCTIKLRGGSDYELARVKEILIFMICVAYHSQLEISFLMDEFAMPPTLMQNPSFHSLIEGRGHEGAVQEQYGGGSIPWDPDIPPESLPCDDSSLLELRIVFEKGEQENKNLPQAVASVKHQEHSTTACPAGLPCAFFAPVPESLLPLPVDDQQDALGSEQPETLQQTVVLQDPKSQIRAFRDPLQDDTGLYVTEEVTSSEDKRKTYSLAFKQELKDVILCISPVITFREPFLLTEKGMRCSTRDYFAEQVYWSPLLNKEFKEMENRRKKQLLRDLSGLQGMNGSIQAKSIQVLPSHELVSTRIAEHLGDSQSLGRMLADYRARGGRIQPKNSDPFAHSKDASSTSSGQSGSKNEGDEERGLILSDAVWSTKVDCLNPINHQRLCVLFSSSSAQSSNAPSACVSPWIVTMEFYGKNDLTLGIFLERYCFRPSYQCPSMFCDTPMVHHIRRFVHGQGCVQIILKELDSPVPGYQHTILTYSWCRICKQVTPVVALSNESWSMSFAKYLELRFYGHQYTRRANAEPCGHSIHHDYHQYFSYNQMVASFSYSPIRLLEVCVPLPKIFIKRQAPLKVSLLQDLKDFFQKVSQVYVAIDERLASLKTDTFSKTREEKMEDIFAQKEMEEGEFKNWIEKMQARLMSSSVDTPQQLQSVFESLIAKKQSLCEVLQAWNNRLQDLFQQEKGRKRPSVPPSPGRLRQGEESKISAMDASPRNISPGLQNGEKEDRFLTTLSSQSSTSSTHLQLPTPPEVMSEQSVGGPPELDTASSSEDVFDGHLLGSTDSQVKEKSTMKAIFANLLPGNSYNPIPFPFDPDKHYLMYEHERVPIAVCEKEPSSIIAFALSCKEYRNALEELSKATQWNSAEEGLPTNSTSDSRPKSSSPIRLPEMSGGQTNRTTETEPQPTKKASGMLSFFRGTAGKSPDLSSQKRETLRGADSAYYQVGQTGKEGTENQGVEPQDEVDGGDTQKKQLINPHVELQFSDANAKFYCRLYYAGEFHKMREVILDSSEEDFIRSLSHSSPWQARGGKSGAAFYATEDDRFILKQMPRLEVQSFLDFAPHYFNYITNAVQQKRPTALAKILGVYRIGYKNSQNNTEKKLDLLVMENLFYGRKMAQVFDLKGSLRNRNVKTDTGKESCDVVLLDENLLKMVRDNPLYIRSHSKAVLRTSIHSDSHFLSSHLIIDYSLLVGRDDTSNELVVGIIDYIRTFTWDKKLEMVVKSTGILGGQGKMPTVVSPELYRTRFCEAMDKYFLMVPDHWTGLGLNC

[15] = biological target: Mitogen-activated protein kinase kinase kinase kinase 1 (Homo sapiens) (UniProt Q92918); details: Compound concentration 1000.0 nM
[16] = biological target: Serine/threonine-protein kinase MRCK gamma (Homo sapiens) (UniProt Q6DT37); details: Compound concentration 1000.0 nM
[17] = biological target: Cyclin-dependent kinase 9 (Homo sapiens) (UniProt P50750); details: Compound concentration 1000.0 nM
Cyclin-dependent kinase 9 (Homo sapiens), sequence (P50750 whole entry): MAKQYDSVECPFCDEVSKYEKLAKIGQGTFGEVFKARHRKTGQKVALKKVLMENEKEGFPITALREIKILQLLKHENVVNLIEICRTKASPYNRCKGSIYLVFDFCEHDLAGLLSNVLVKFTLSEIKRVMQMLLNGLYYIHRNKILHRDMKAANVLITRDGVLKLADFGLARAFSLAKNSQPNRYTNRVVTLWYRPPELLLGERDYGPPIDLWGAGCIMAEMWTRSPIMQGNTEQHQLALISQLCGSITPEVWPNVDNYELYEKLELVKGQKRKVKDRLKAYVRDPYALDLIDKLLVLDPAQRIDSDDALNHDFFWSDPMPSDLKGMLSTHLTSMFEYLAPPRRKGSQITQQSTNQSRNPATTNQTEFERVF

[18] = biological target: Tyrosine-protein kinase Fyn (Homo sapiens) (UniProt P06241); details: Compound concentration 1000.0 nM
[19] = biological target: 3-phosphoinositide-dependent protein kinase 1 (Homo sapiens) (UniProt O15530); details: Compound concentration 1000.0 nM
[20] = biological target: cAMP-dependent protein kinase catalytic subunit beta (Homo sapiens) (UniProt P22694); details: Compound concentration 1000.0 nM
[21] = biological target: Serine/threonine-protein kinase PAK 3 (Homo sapiens) (UniProt O75914); details: Compound concentration 1000.0 nM
[22] = test system: Tyrosine-protein kinase ABL1 (Homo sapiens), P00519 [M351T]; details: Compound concentration 1000.0 nM
[23] = biological target: Serine/threonine-protein kinase OSR1 (Homo sapiens) (UniProt O95747); details: Compound concentration 1000.0 nM
[24] = biological target: 5'-AMP-activated protein kinase catalytic subunit alpha-2 (Homo sapiens) (UniProt P54646); details: Compound concentration 1000.0 nM
[25] = biological target: Casein kinase II subunit alpha (Homo sapiens) (UniProt P68400); details: Compound concentration 1000.0 nM
[26] = biological target: Activin receptor type-2B (Homo sapiens) (UniProt Q13705); details: Compound concentration 1000.0 nM
[27] = biological target: Serine/threonine-protein kinase TAO3 (Homo sapiens) (UniProt Q9H2K8); details: Compound concentration 1000.0 nM
[28] = biological target: Serine/threonine-protein kinase/endoribonuclease IRE1 (Homo sapiens) (UniProt O75460); details: Compound concentration 1000.0 nM
[29] = biological target: Serine/threonine-protein kinase STK11 (Homo sapiens) (UniProt Q15831); details: Compound concentration 1000.0 nM
[30] = biological target: Protein kinase C delta type (Homo sapiens) (UniProt Q05655); details: Compound concentration 1000.0 nM
[31] = biological target: Ephrin type-A receptor 5 (Homo sapiens) (UniProt P54756); details: Compound concentration 1000.0 nM
[32] = biological target: Dual specificity mitogen-activated protein kinase kinase 2 (Homo sapiens) (UniProt P36507); details: Compound concentration 1000.0 nM
[33] = biological target: Serine/threonine-protein kinase DCLK1 (Homo sapiens) (UniProt O15075); details: Compound concentration 1000.0 nM
Serine/threonine-protein kinase DCLK1 (Homo sapiens), sequence (O15075 whole entry): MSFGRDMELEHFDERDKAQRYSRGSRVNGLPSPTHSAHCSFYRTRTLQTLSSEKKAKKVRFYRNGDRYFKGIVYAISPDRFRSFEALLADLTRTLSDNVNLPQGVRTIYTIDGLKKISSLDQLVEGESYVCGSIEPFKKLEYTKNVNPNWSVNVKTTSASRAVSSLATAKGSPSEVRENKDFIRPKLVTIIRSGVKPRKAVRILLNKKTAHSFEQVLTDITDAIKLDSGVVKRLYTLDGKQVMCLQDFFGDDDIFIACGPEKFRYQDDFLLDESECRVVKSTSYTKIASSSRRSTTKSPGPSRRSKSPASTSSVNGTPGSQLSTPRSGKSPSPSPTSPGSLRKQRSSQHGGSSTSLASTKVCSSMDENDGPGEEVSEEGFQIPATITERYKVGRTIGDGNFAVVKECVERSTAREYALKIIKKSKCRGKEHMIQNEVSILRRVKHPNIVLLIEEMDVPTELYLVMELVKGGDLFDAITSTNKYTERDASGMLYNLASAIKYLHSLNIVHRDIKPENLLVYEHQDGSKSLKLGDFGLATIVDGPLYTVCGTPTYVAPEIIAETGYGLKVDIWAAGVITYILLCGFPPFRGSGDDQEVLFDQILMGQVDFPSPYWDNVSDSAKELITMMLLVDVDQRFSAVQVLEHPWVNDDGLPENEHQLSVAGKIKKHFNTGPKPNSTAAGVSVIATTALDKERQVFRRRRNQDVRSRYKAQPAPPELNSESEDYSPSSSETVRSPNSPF

[34] = biological target: Macrophage colony-stimulating factor 1 receptor (Homo sapiens) (UniProt P07333); details: Compound concentration 1000.0 nM
[35] = biological target: Myosin-IIIb (Homo sapiens) (UniProt Q8WXR4); details: Compound concentration 1000.0 nM
[36] = biological target: Phosphatidylinositol 4-phosphate 3-kinase C2 domain-containing subunit beta (Homo sapiens) (UniProt O00750); details: Compound concentration 1000.0 nM
[37] = biological target: Sigma non-opioid intracellular receptor 1 (Homo sapiens, UniProt Q99720); details: Compound concentration 10.0 uM
[38] = test system: Phosphatidylinositol 4,5-bisphosphate 3-kinase catalytic subunit alpha isoform (Homo sapiens), P42336 [E545A]; details: Compound concentration 1000.0 nM
[39] = biological target: Serine/threonine-protein kinase WNK3 (Homo sapiens) (UniProt Q9BYP7); details: Compound concentration 1000.0 nM
[40] = biological target: Proto-oncogene tyrosine-protein kinase Src (Homo sapiens) (UniProt P12931); details: Compound concentration 1000.0 nM
[41] = biological target: ALK tyrosine kinase receptor (Homo sapiens) (UniProt Q9UM73); details: Compound concentration 1000.0 nM
ALK tyrosine kinase receptor (Homo sapiens), sequence (Q9UM73 19-1620 limits assumed): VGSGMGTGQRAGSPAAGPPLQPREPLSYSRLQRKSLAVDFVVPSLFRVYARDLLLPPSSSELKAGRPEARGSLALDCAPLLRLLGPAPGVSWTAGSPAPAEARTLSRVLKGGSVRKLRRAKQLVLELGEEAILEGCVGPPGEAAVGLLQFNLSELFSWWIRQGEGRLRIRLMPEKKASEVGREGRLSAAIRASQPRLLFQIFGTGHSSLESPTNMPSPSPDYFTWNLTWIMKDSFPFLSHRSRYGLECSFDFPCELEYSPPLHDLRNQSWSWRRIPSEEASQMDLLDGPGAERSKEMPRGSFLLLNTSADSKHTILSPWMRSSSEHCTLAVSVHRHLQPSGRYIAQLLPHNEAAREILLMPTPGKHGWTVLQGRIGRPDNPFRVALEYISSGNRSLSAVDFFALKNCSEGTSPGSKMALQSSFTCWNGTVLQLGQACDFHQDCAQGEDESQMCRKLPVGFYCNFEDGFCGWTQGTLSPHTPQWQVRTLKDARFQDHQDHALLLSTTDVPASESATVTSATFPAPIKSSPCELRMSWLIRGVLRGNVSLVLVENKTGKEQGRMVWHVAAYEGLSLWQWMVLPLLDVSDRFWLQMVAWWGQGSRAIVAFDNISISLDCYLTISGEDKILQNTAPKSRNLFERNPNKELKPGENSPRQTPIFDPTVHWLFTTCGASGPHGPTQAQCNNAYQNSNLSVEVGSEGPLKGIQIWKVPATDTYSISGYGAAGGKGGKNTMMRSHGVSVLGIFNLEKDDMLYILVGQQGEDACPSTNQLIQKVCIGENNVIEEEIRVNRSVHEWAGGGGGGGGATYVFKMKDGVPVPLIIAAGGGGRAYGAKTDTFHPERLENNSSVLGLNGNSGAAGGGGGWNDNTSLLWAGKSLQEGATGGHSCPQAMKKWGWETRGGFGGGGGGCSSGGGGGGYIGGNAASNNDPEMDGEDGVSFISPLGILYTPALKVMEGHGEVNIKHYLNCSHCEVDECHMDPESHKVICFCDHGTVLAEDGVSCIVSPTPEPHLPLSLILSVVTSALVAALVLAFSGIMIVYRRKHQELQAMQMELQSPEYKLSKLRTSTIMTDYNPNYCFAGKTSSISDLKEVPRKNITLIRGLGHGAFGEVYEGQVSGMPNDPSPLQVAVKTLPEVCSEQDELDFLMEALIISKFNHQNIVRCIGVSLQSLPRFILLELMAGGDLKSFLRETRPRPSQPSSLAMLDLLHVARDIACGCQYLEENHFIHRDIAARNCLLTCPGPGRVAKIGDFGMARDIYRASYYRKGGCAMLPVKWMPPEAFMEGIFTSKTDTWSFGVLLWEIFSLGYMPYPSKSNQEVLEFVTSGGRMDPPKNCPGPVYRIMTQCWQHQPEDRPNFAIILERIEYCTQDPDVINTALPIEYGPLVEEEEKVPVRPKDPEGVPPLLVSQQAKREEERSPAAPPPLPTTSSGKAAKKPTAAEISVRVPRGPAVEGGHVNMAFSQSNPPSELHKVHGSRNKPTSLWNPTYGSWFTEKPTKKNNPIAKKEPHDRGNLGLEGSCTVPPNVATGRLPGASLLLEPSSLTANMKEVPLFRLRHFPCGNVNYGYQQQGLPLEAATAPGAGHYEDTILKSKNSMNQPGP

[42] = biological target: Serine/threonine-protein kinase mTOR (Homo sapiens) (UniProt P42345); details: Compound concentration 1000.0 nM
[43] = biological target: Testis-specific serine/threonine-protein kinase 3 (Homo sapiens) (UniProt Q96PN8); details: Compound concentration 1000.0 nM
Testis-specific serine/threonine-protein kinase 3 (Homo sapiens), sequence (Q96PN8 whole entry): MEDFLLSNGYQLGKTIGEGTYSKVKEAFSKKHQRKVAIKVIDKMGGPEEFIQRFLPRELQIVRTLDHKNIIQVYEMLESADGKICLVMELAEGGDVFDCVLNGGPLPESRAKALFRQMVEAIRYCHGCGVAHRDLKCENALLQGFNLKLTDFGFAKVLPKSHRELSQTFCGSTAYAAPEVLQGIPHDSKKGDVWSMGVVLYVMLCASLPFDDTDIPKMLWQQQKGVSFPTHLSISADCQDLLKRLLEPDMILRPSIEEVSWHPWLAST

[44] = biological target: Serine/threonine-protein kinase VRK2 (Homo sapiens) (UniProt Q86Y07); details: Compound concentration 1000.0 nM
[45] = biological target: Mitogen-activated protein kinase kinase kinase 11 (Homo sapiens) (UniProt Q16584); details: Compound concentration 1000.0 nM

## CC(=O)Nc1c(C(C)=O)c(=O)n(C)c2nc(-c3ccc(Cl)cc3Cl)c(-c3ccc(Cl)cc3)cc12 [NAPHTHYRIDINONE]
[1]
  residual activity: 100%
[2]
  residual activity: 100%
[3]
  residual activity: 100%
[4]
  residual activity: 100%
[5]
  residual activity: 100%
[6]
  residual activity: 100%
[7]
  residual activity: 100%
[8]
  residual activity: 100%
[9]
  inhibition: 12.6%
[10]
  residual activity: 100%
[11]
  residual activity: 81%
[12]
  residual activity: 91%
[13]
  residual activity: 93%
[14]
  residual activity: 100%
[15]
  residual activity: 91%
[16]
  residual activity: 100%
[17]
  residual activity: 100%
[18]
  residual activity: 100%
[19]
  residual activity: 100%
[20]
  residual activity: 100%
[21]
  residual activity: 100%
[22]
  residual activity: 100%
[23]
  residual activity: 93%
[24]
  residual activity: 100%
[25]
  residual activity: 100%
[26]
  residual activity: 100%
[27]
  residual activity: 63%
[28]
  residual activity: 100%
[29]
  residual activity: 43%
[30]
  residual activity: 100%
[31]
  residual activity: 100%
[32]
  residual activity: 100%
[33]
  residual activity: 100%
[34]
  residual activity: 100%
[35]
  residual activity: 100%
[36]
  residual activity: 48%
[37]
  inhibition: 50%
[38]
  residual activity: 85%
[39]
  residual activity: 100%
[40]
  residual activity: 100%
[41]
  residual activity: 100%
[42]
  residual activity: 100%
[43]
  residual activity: 100%
[44]
  residual activity: 100%
[45]
  residual activity: 100%

## CC(=O)c1c(NS(C)(=O)=O)c2cc(-c3ccc(Cl)cc3)c(-c3ccc(Cl)cc3Cl)nc2n(C)c1=O [MRL-CB1-NC]
[1]
  residual activity: 75%
[2]
  residual activity: 100%
[3]
  residual activity: 79%
[4]
  residual activity: 100%
[5]
  residual activity: 100%
[6]
  residual activity: 98%
[7]
  residual activity: 100%
[8]
  residual activity: 100%
[9]
  inhibition: 5.51%
[10]
  residual activity: 100%
[11]
  residual activity: 92%
[12]
  residual activity: 90%
[13]
  residual activity: 61%
[14]
  residual activity: 66%
[15]
  residual activity: 100%
[16]
  residual activity: 100%
[17]
  residual activity: 91%
[18]
  residual activity: 92%
[19]
  residual activity: 100%
[20]
  residual activity: 92%
[21]
  residual activity: 100%
[22]
  residual activity: 87%
[23]
  residual activity: 79%
[24]
  residual activity: 85%
[25]
  residual activity: 92%
[26]
  residual activity: 100%
[27]
  residual activity: 72%
[28]
  residual activity: 77%
[29]
  residual activity: 100%
[30]
  residual activity: 98%
[31]
  residual activity: 100%
[32]
  residual activity: 100%
[33]
  residual activity: 98%
[34]
  residual activity: 100%
[35]
  residual activity: 99%
[36]
  residual activity: 100%
[37]
  inhibition: -7.46%
[38]
  residual activity: 100%
[39]
  residual activity: 80%
[40]
  residual activity: 100%
[41]
  residual activity: 95%
[42]
  residual activity: 100%
[43]
  residual activity: 100%
[44]
  residual activity: 100%
[45]
  residual activity: 100%
